Data reported in patent US10869931B2, “Polyethylene glycol-modified angiogenesis inhibitor HM-1 and application thereof” (NANJING ANJI BIOLOGICAL TECHNOLOGY CO.,LTD, priority 2016, dated 2020).
Where “and” joins values, the source holds several entries; their conditions need not be identical. Identical values can stand only once. Marks after values point to notes of the source that are not given here. Blank lines part the entries; values can stand above or below the molecule they belong to. Where no end group is shown, it is not given here.

Tests used:
[1] = system: xylene-induced ear swelling in Kunming mice; assay: Xylene-induced ear swelling in mice; assay type: in vivo, mouse; details: 200 mg/kg (positive control) once daily for 5 days
Protocol: Kunming mice were used. The saline group was used as the blank control group, the aspirin group (200 mg/kg) as the positive control group, and the mPEG-HM-1 administration group as the experimental group. Mice were administered once daily for 5 consecutive days. The blank control group was given an equal volume of physiological saline. One hour after the last administration, 0.05 mL of xylene was applied to both sides of the right ear of the mice to cause inflammation, and the left ear was not coated as normal ears. After 2 h, the mice were sacrificed by dislocation, and the ears were cut along the auricle. Ear pieces were taken with a puncher, weighed, and the swelling degree and swelling rate were calculated. Swelling degree=right ear piece weight-left ear piece weight, swelling rate=(swelling degree/left ear piece weight)×100%. Statistical t-test was performed on the test results, *P<0.05 was a significant difference, and **P<0.01 was a very significant difference. See Table 31 to Table 34 for the results.

[2] = system: Human Umbilical Vein Endothelial Cells (HUVEC); assay: Transwell migration of HUVEC; assay type: cell-based; details: 10 μg/mL, 24 h
Protocol: 10 mg/mL Matrigel was diluted 1:2 with HUVEC-specific medium, spread on a transwell chamber membrane, and air-dried at room temperature. HUVEC cells cultured in logarithmic growth phase were digested with trypsin digest, collected, washed twice with PBS, and resuspended in blank HUVECs-specific medium. The cells were counted under a microscope, and the cell concentration was adjusted to 1×10^5/mL. The test solutions of each group were prepared and diluted to 100 μL with a blank HUVECs-specific medium. The cells were seeded into a transwell chamber at 100 μL per well, and each set of test solution was added to the chamber. The cell culture was stimulated by adding 0.6 mL of endothelial cell culture medium containing 5% fetal bovine serum and 1% ECGS into a 24-well plate, and cultured at 5% CO2 for 24 hour at 37° c. Discard the culture medium in the well, fix it with 90% alcohol at room temperature for 30 minutes, 0.1% crystal violet for 10 min at room temperature, rinse with water, gently wipe off the unsprayed cells in the upper layer with a cotton swab, observe under microscope and select four fields to take pictures. Calculate migration inhibition (MI) according to the formula: […]
Ntest was the number of cell migration in the test group, and Ncontrol was the number of cell migration in the blank control group.
The test was repeated 3 times independently. The results obtained from the test were calculated as mean±SD, and a statistical T test was performed. *P<0.05 was a significant difference, and **P<0.01 was a very significant difference.

[3] = system: human retinal vascular endothelial cells (HRCEC); assay: MTT proliferation of human retinal vascular endothelial cells; assay type: cell-based; details: 10 μg/mL (positive control), 48 h
Protocol: The activity of the angiogenesis inhibitor polypeptide to inhibit proliferation of human retinal vascular endothelial cells was examined by MTT assay. HRCEC cells were cultured in a 37° C., 5% CO2 incubator to a density of 90% or more, and collected by trypsinization. The cells were resuspended in the culture medium and counted under a microscope to adjust the cell concentration to 3.0×10^4 cells/mL. The cell suspension was inoculated into a 96-well plate at 100 μL per well and cultured overnight at 37° C. in a 5% CO2 incubator. After the cells were completely adhered, the angiogenesis inhibitor polypeptide was added as the administration group, and Avastin was used as the positive control group, and the culture media without any drug was used as a blank control group, and the culture media were diluted to each predetermined concentration. Each dilution was separately added to a 96-well plate at 100 μL per well and incubated for 48 h at 37° C. in a 5% CO2 incubator. 20 μL of 5 mg/mL MTT was added to each well of a 96-well plate and incubation was continued for 4 h. The medium was aspirated and dissolved in 100 μL of DMSO per well. […] The formula is as follows: PI (%)=1−administration group/negative group
The test was repeated 3 times independently. The results obtained by the test were expressed as mean±SD, and a statistical T test was performed. *P<0.05 was a significant difference, and **P<0.01 was a very significant difference.

[4] = Half-life / pharmacokinetics of mPEG-HM-1 and HM-1; details: in vivo

Molecule: CC(=O)Oc1ccccc1C(=O)O [aspirin, reference compound]
Swelling ([1]; 2 h after xylene): 3.07 ± 0.31** mg and 3.02 ± 0.41** mg and 3.01 ± 0.53** mg and 2.98 ± 0.53** mg
Inhibition rate ([1]; ear swelling vs control): 50.02% and 51.11% and 50.87% and 50.93%

Molecule: Avastin: positive control in HUVEC migration and HRCEC proliferation tests [reference compound]
cell migration number (Mean ± SD) [2]: 564.53 ± 60.36 and 560.64 ± 62.06 and 532.80 ± 60.06 and 572.06 ± 48.92
inhibition rate of HUVEC migration [2]: 46.78%* and 45.92%* and 48.22%* and 47.62%*
Inhibition rate ([3]; HRCEC proliferation): 65.83%** and 64.93%** and 65.71%** and 66.07%**
A570 nm-A630 nm ([3]; HRCEC, MTT): 0.4479 ± 0.08104 and 0.4636 ± 0.08322 and 0.4494 ± 0.08132 and 0.4518 ± 0.08013

AUC(0-inf) [4]: 32800 ± 8230 ng·h/mL
MRT inf [4]: 4.02 ± 0.78 min
Molecule: RGADRAGGGGRGD [HM-1, Arg-Gly-Ala-Asp-Arg-Ala-Gly-Gly-Gly-Gly-Arg-Gly-Asp]
